# From patent publication US11912693B2, “Compounds for modulating S1P1 activity and methods of using the same” (TREVENA, INC., priority 2017, dated 2024)
# What was measured:
# [1] = system: paclitaxel induced peripheral neuropathy; assay: Reversal of allodynia induced by paclitaxel in mice (s.c. or p.o., von Frey frequency method); type: in vivo, c57bl/6 mice; conditions: Mus musculus; for inhibition in vivo at 3 mg/kg: po, 1 h, 3 mg/kg p.o., tested 60 min after dosing, read-out: Screen @ 3 mg/kg po (% MPE); for inhibition in vivo at 1 mg/kg: sc, 0.5 h, 1 mg/kg s.c., tested 30 min after dosing, read-out: Screen @ 1 mg/kg sc (% MPE)
# Summary of the method: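 Neuropathy was induced in mice by paclitaxel (6 mg/kg i.p., days 1, 3, 5, 7) or oxaliplatin (4 mg/kg i.p., days 1-5), with re-testing about 14 days later. Compounds were given s.c. (tested at 30 min) or p.o. (tested at 60 min; paclitaxel only). A 0.4 g von Frey filament was applied ten times per paw, and % non-response was converted to % MPE.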
# [2] = system: Freund's Complete Adjuvant induced inflammation / mechanical allodynia; assay: Tactile allodynia produced by intraplantar Freund's Complete Adjuvant in rats (Randall-Selitto); type: in vivo, rat; conditions: CFA model, 24 hours after CFA
# Procedure: Animals were acclimated to the vivarium for at least 48 hr prior to behavioral testing. Inflammation was induced with the administration of an intraplantar (subcutaneous injection into the plantar surface of the hind paw, i.pl.) injection of 0.10 ml Freund's Complete Adjuvant (FCA). The experiments were conducted 24 hours after CFA administration. Rats are tested for mechanical allodynia in a Randall-Selitto apparatus. The inflamed paw is put on a pedestal and a pointed force of increasing intensity (0 to 250 grams) is applied to the paw. When the animal struggles to withdraw from the force the test is stopped and the force to induce that struggle is recorded. Data is presented as mean grams of force to withdrawal or a percentage of the maximum possible effect.
# [3] = target: hERG channel (Homo sapiens (Human), UniProt Q12809); assay: Automated Qpatch patch-clamp hERG assay
# Sequence of hERG channel (Q12809 whole entry): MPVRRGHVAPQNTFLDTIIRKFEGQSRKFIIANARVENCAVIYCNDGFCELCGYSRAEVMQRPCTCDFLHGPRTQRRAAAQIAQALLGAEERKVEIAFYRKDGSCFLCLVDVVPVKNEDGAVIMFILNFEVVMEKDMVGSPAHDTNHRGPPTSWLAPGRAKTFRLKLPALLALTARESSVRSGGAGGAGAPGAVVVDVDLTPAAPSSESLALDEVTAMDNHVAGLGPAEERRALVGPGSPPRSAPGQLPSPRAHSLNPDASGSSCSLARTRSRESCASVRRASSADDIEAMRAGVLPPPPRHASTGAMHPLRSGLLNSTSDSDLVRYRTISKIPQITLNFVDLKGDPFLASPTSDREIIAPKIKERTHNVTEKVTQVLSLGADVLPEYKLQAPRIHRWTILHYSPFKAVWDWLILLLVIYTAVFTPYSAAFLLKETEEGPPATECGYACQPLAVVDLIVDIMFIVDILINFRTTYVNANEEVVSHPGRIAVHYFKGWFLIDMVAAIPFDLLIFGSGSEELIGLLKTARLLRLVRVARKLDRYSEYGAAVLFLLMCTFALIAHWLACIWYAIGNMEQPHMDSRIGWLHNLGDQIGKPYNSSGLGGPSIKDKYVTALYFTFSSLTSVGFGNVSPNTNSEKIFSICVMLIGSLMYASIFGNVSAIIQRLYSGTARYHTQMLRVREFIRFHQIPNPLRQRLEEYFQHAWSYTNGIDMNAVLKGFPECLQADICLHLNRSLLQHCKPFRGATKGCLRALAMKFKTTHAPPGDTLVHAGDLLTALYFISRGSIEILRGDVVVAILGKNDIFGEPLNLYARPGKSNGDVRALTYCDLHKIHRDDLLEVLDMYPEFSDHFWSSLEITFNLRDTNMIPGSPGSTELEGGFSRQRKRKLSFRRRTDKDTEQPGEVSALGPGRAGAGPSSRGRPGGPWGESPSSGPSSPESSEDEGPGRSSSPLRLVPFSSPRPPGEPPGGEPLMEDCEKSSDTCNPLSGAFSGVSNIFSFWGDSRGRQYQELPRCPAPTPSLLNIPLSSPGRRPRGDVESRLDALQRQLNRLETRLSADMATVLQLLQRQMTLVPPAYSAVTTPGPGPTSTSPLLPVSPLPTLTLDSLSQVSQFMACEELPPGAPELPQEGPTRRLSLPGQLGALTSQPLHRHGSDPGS
# [4] = system: peripheral blood lymphocytes; assay: Peripheral blood lymphocytes (lymphopenia) in c57bl/6 mice, acute and chronic studies; type: in vivo; conditions: 6 mg/kg sc, 7 days; for Lymphopenia: Effect and Doses, mg/kg, sc: peripheral blood lymphocytes vs vehicle
# Summary of the method: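 Mice dosed subcutaneously: acute, single 3 mg/kg (n=5/group), blood taken at set time points; chronic, seven days in dose response (up to 3 mg/kg) or screening at 6 mg/kg (n=6-8/group), blood taken 45 min after final dose. Lymphocyte counts (10^3 cells/μl) by haematology analyser, compared with vehicle.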
# [5] = system: STZ-induced diabetic neuropathy; assay: Tactile allodynia and thermal hyperalgesia in streptozotocin-induced (STZ) diabetic neuropathy model; type: in vivo, Sprague Dawley rats; conditions: for Active Doses in STZ Diabetic Neuropathy Model (mg/kg, po) (p < 0.05 compared to STZ + VEH treated mice) MECHANICAL: mechanical allodynia, manual von Frey; for Active Doses in STZ Diabetic Neuropathy Model (mg/kg, po) (p < 0.05 compared to STZ + VEH treated mice) THERMAL: thermal hyperalgesia, paw withdrawal latency
# Procedure: A cohort of 48 male Sprague Dawley rats, weighing 225-250 g at arrival, was group housed under constant temperature, humidity and a 12-hour light-dark cycle. Following acclimation to the animal colony, the animals were tested for baseline withdrawal responses to mechanical allodynia and thermal hyperalgesia using the methods described below in Chaplan, S. R., Bach, […]., Chung, J. M. and Yaksh, T. L. Quantitative assessment of tactile allodynia in the rat paw. J. Neurosci. Methods 53: 55-63, 1994; Joris, J. L., Dubner, R. and Hargreaves, K. M. Opioid analgesia at Peripheral Sites: a Target for Opioids Released during Stress and Inflammation? Anesthesia and Analgesia 66(12), 1277-81, 1987; and Morrow, T. J. Animal Models of Painful Diabetic Neuropathy: The STZ rat model. Current Protocols in Neuroscience, November; Chapter 9, Unit 9.18, 2004.. […] Two days later (on Day 3), hyperglycermia was confirmed by existence of blood glucose >350 mg/dL as measured by glucometer, and the animal health was monitored biweekly for 12 days. For measures of mechanical allodynia, rats were preselected for experimentation only if the pain threshold 7-14 days after STZ injection (pre-treatment) was reduced by 10 grams of force relative to the response of the individual paw before STZ challenge (pre-induction), namely, with clear presence of allodynia. The rats were randomized based on pre-dose mechanical allodynia scores to balanced treatment groups. The animals were tested prior to study inclusion for mechanical allodynia by the manual von Frey test on Day 20 (Chaplan up/down method using von Frey filaments on the plantar surface of the paw). The manual von Frey test was repeated at 0.5 or 1 hr following administrations of test articles, vehicle, and reference compound via the specified route(s) and on Day 21 post-surgery. […] The rats were randomized based on pre-dose thermal hyperalgesia scores to balanced treatment groups. Rats were preselected (with clear presence of thermal hyperalgesia) on Day 20. Thermal hyperalgesia was measured at 1 or 1.5 hr after dosing of test articles, vehicle, and reference compound via the specified route(s) on Day 21. Each rat was placed within a plastic box atop a glass floor for 20 to 30 minutes. A light beam under the floor was aimed at the plantar surface of the left hind paw. The time was measured automatically when the paw was withdrawn away from the thermal stimulus. A cut-off latency of 23 sec was imposed. The latency to withdrawal was obtained for each rat and defined as the heat pain threshold. Mean thresholds and withdrawal latencies were analyzed via Two Way ANOVA followed by Dunnett's Multiple Comparison tests to STZ+VEH group with differences considered significant at p<0.05.
"Lymphopenia: Effect and Doses, mg/kg, sc (change in peripheral blood lymphocytes) ([4]; significance vs vehicle given)",Structure (SMILES),inhibition in vivo at 3 mg/kg [1] [%],inhibition in vivo at 1 mg/kg [1] [%],"Active Doses, mg/kg sc (>50% MPE) [2] [mg/kg]",IC50 [3] [µM],"Lymphopenia: Effect and Doses, mg/kg, sc [4]","Active Doses in STZ Diabetic Neuropathy Model (mg/kg, po) (p < 0.05 compared to STZ + VEH treated mice) MECHANICAL [5] [mg/kg]","Active Doses in STZ Diabetic Neuropathy Model (mg/kg, po) (p < 0.05 compared to STZ + VEH treated mice) THERMAL [5] [mg/kg]"
,"COc1ccc(-c2noc(-c3ccc4c(c3)nnn4CC(C)(C)O)n2)c(C)c1 [Compound 26, 1-{5-[3-(4-methoxy-2-methylphenyl)-1,2,4-oxadiazol-5-yl]-1H-1,2,3-benzotriazol-1-yl}-2-methylpropan-2-ol]",< 50,< 50,≥0.1,> 10,,,
,"Cc1ccccc1-c1nc(-c2ccc3c(c2)nnn3C(C)C)no1 [Compound 99, 3-(1-isopropyl-1H-benzo[d][1,2,3]triazol-5-yl)-5-(o-tolyl)-1,2,4-oxadiazole]",> 50,> 50,,,"no change: 6 mg/kg, 7 days",,
,"CCC1(CC)CC(=O)c2cc(-c3nc(-c4cccnc4)no3)ccc2O1 [Compound 103, 2,2-diethyl-6-[3-(pyridin-3-yl)-1,2,4-oxadiazol-5-yl]-3,4-dihydro-2H-1-benzopyran-4-one]",> 50,> 50,≥0.03,,"no change: 6 mg/kg, 7 days",<100,<100
,"CCC1(CC)CC(=O)c2cc(-c3nc(-c4cccnc4OC)no3)ccc2O1 [Compound 147, 2,2-diethyl-6-(3-(2-methoxypyridin-3-yl)-1,2,4-oxadiazol-5-yl)chroman-4-one]",,> 50,,,"no change: 6 mg/kg, 7 days",,
,"CCC1(CC)CC(=O)c2cc(-c3nc(-c4ccncc4OC)no3)ccc2O1 [Compound 212, 2,2-diethyl-6-(3-(3-methoxypyridin-4-yl)-1,2,4-oxadiazol-5-yl)chroman-4-one]",,> 50,≥0.1,,,,
,"COc1ccccc1-c1nc(-c2ccc3c(c2)nnn3C(C)C)no1 [Compound 287, 3-(1-isopropyl-1H-benzo[d][1,2,3]triazol-5-yl)-5-(2-methoxyphenyl)-1,2,4-oxadiazole]",,< 50,,,"no change: 6 mg/kg, 7 days",,
,"Cc1ccccc1-c1noc(-c2ccc3c(c2)nnn3C(C)C)n1 [Compound 293, 5-[3-(2-methylphenyl)-1,2,4-oxadiazol-5-yl]-1-(propan-2-yl)-1H-1,2,3-benzotriazole]",,> 50,≥0.1,,"no change: 6 mg/kg, 7 days",<100,<100
,"CC(C)n1nnc2cc(-c3nc(-c4cccc5c4OCCC5)no3)ccc21 [Compound 304, 3-chroman-8-yl-5-(1-isopropylbenzotriazol-5-yl)-1,2,4-oxadiazole]",,> 50,,> 10,"no change: 6 mg/kg, 7 days",,
,"CC(C)n1nnc2cc(-c3nc(-c4ccncc4C(F)(F)F)no3)ccc21 [Compound 455, 1-(propan-2-yl)-5-{3-[3-(trifluoromethyl)pyridin-4-yl]-1,2,4-oxadiazol-5-yl}-1H-1,2,3-benzotriazole]",> 50,,,,"no change: 6 mg/kg, 7 days",,
"−28% not stat sig: 6 mg/kg, 7 days","CCC1(CC)CC(=O)c2cc(-c3nc(-c4cn[nH]c4)no3)ccc2O1 [Compound 469, 6-(3-(1H-pyrazol-4-yl)-1,2,4-oxadiazol-5-yl)-2,2-diethylchroman-4-one]",> 50,,≥0.01,> 10,,<100,<100
